Here are results for one compound from patent US20240206469A1, “PHOSPHORUS USE EFFICIENCY ENHANCERS AS PLANT GROWTH PROMOTORS” (EUROCHEM ANTWERPEN, priority 2021, published 2024).

The subject of one experiment is Arabidopsis root hairs. Description: Root hair number and length quantification. The class given is in vivo, Arabidopsis thaliana. The protocol:
(§1) All Arabidopsis plant experiments were performed using the Arabidopsis thaliana Columbia-0 background. The Arabidopsis pSPX1::GUS line is described in the Plant Journal 2008, 54: 965-975. For rice, the cultivar Nipponbare was used. For maize, the cultivars DKC 2931 and B104 were used for regular pot experiments and sand-based pot experiments, respectively. For soybean, the cultivar Primus was used. […] The medium was solidified due to the addition of 0.6% Gelrite, unless stated otherwise. In case of vertical plates (root length and root hair measurements), the medium was supplied with 0.5% of sucrose and 1 μM (low phosphate, 1 μM KH2PO4, 9.9 mM KCl), 10 μM (low phosphate 10 μM KH2PO4, 9.9 mM KCl) or 1.25 mM KH2PO4 (high phosphate). Arabidopsis seeds were stratified for 2 days at 4° C. before germination. Seedlings were germinated in climate-controlled growth chambers at 22° C. under continuous light (100 μmol m^−2 s^−1). Husked rice seeds were germinated on wetted Whatman paper for 2 days at 37° C. and then transferred to Sterivent boxes or square Petri dishes with solid medium. Maize and soybean seeds were wetted 24 hours at room temperature prior to sowing in pots.
Roots were imaged using a stereomicroscope or a VHX-6000. Number and length of the root hairs parallel to the medium surface was determined at 4 to 6 mm above the root meristem. Root hair length was measured using the ImageJ software.

Experiment [1] relates to Maize. Description: Regular maize pot experiment (potting soil). Type of experiment: in vivo, maize cultivar DKC 2931. As to conditions: low phosphate, 10 μM. Here is the method:
as §1
Regular Arabidopsis, soybean and maize pot experiments used an unfertilized potting soil, which was supplemented at the start of the experiment with 50 ml H2O containing 0.25 g/l NH4NO3 and 0.44 g/l (high phosphate) or no (maize and soybean) or 0.11 g/l KH2PO (Arabidopsis) for low phosphate conditions. […] Compound concentration was 10 μM, calculated based on the total water content after watering, and was added at the start of the experiment (Arabidopsis) or once a week (maize). […] All parameters in the sand experiment, except the rate of leaf 4 (measured the first 4 days after emergence), were measured 19 days after sowing. Measurements in the pot experiments with potting soil were done after 4 weeks of growth, except for leaf 5, which was measured at 26 days. […]

For experiment [2], the system named is SPX1 phosphate starvation biomarker. Briefly: Chemical activity assessment with Arabidopsis pSPX1::GUS reporter line (GUS stained area). The class given is in vivo, Arabidopsis thaliana. The protocol: as §1
For the chemical activity assessment 3 to 8 seeds per well of Arabidopsis pSPX1::GUS line were sown in 96-well plates containing 150 μl of low phosphate modMS liquid medium containing 1% of sucrose. Compounds were added in 50 μM concentration, starting from a 5 mM stock of compounds solved in DMSO. Different chemical substances were separately added to different wells. Per plate, 16 control wells were used, 8 containing only the low phosphate medium and 1% DMSO, and 8 containing high phosphate medium and 1% DMSO. 7 days after germination, plates were scanned using a flatbed scanner (EPSON Expression 11000XL) and analyzed for leaf size. After scanning, the growth medium was replaced by GUS staining solution (see Plant Mol. Biol. Rep. 1994, 12: 37-42 for details) and incubated for 1.5 hours at 37° C. The plates were scanned a second time and analyzed for GUS signal area. Measurements of both leaf area and GUS signal area were conducted by filtering out and measure the green and blue signal, respectively using ImageJ software. If the green leaf area was 50% or less than the control, samples were omitted. Additionally, all results were visually screened for leaf size and GUS signal.

Experiment [3] relates to Maize. Briefly: Sand-based maize pot experiment. Type of experiment: in vivo, maize cultivar B104. As to conditions: low phosphate. Here is the method: as §1
Regular Arabidopsis, soybean and maize pot experiments used an unfertilized potting soil, which was supplemented at the start of the experiment with 50 ml H2O containing 0.25 g/l NH4NO3 and 0.44 g/l (high phosphate) or no (maize and soybean) or 0.11 g/l KH2PO (Arabidopsis) for low phosphate conditions. For the sand-based maize pot experiment, sand was supplemented with 50 ml H2O containing 0.25 g/l NH4NO3 and 0.38 g/l (high phosphate) or 0.02 g/l (low phosphate) KH2PO4. Potassium was balanced via addition of KCl. Compound concentration was 10 μM, calculated based on the total water content after watering, and was added at the start of the experiment (Arabidopsis) or once a week (maize). Indexed chlorophyll contents were received via a SPAD 502 Plus Chlorophyll Meter. All parameters in the sand experiment, except the rate of leaf 4 (measured the first 4 days after emergence), were measured 19 days after sowing. Measurements in the pot experiments with potting soil were done after 4 weeks of growth, except for leaf 5, which was measured at 26 days. One long-term maize pot experiment was conducted with the DKC 2931 (2.5 months) and B104 (3 months) cultivars on the PHENOVISION phenotyping platform as described in Frontiers in Plant Science 2021, 12: 640914, except that an unfertilized potting soil was used and that plants were fertilized with a low-phosphate Hoagland solution. The 2.5× overconcentrated low-phosphate Hoagland solution contained 0.034 g/l KH2PO and 200 mL of this solution was applied twice a week. […]

Experiment [4] relates to Maize. Briefly: Maize growth experiment in pots with mixture of unfertilized potting soil and sand (leaf 5). Conditions: maize, pots with unfertilized potting soil and sand, after 29 days; control 38.1. The class given is in vivo. The protocol: For a subset of compounds, we performed a more extensive analysis on their root hair inducing effect in a dose-response experiment (Table 3). This confirms that the more simple structures 8.14 and 8.14.6 still retain the activity of compound 8. […] To validate this, we performed a maize growth experiment using compound 8 and the, based on the increase of total root hair length, stronger variant 8.14.6. The experiment was conducted in pots with a mixture of unfertilized potting soil and sand, and leaf 5 was measured after 29 days (Table 4).

The test system of a further experiment is Rice. Description: Rice plate experiment. Conditions: low phosphate 0.001 mM, 10 μM, 11 days after germination, control 14.4. Type of experiment: in vivo, rice cultivar Nipponbare. The protocol:
All Arabidopsis plant experiments were performed using the Arabidopsis thaliana Columbia-0 background. The Arabidopsis pSPX1::GUS line is described in the Plant Journal 2008, 54: 965-975. For rice, the cultivar Nipponbare was used. For maize, the cultivars DKC 2931 and B104 were used for regular pot experiments and sand-based pot experiments, respectively. For soybean, the cultivar Primus was used. […] The medium was solidified due to the addition of 0.6% Gelrite, unless stated otherwise. […]
Arabidopsis primary root growth experiments were done on MS1/2 on vertical standing plates and roots were measured 11 days after germination. Roots were imaged using a flatbed scanner (EPSON Expression 11000XL) and root length was measured using ImageJ software. Arabidopsis shoot biomass was determined in 11 days after germination and growth on vertical standing plates with modMS. Arabidopsis leaf area was measured 21 days after germination on horizontal plates with modMS medium. Plates were scanned from the top using a flatbed scanner (EPSON Expression 11000XL) and the visible leaf area was measured using ImageJ software. […] Plant height was measured 11 days after germination. […] Plant height was measured 13 days after germination. […]

For `CC1CN(CC(=O)c2c(N)n(C)c(=O)n(C)c2=O)c2ccccc2O1` (stereo not shown) [Compound 8, 6-amino-1,3-dimethyl-5-[2-(2-methyl-2,3-dihydro-1,4-benzoxazin-4-yl)acetyl]pyrimidine-2,4-dione], the activity at 0.6 µM in the experiment with Arabidopsis root hairs (Arabidopsis thaliana, 0.6 μM, read-out: Total root hair length per root (in % compared to the control)) amounted to 104%. Besides, the activity at 1.25 µM in the experiment with Arabidopsis root hairs (Arabidopsis thaliana, 1.25 μM, read-out: Total root hair length per root (in % compared to the control)) is 333%. For the same compound, in the experiment on Arabidopsis root hairs (Arabidopsis thaliana, 2.5 μM, read-out: Total root hair length per root (in % compared to the control)), the activity at 2.5 µM came out at 347%. In the experiment with Arabidopsis root hairs (Arabidopsis thaliana, 5 μM, read-out: Total root hair length per root (in % compared to the control)), the activity at 5 µM was found to be 485%. The activity at 10 µM with Arabidopsis root hairs (Arabidopsis thaliana, 10 μM, read-out: Total root hair length per root (in % compared to the control)) worked out at 586%. Besides, in the experiment with Arabidopsis root hairs (Arabidopsis vertical plate, high phosphate, control 0.11), the “Average root hair length per root in high phosphate conditions” value is reported as 0.32 mm. Besides, the “Root hair number in high phosphate conditions (one plane in 2 mm region)” value in the experiment with Arabidopsis root hairs (Arabidopsis vertical plate, high phosphate, control 3) is 9. In addition, in the experiment on Arabidopsis root hairs (Arabidopsis vertical plate, high phosphate, control 57), the “Total root hair length per root in high phosphate conditions” value is given as 183 cm. The compound also returned a Shoot weight in the experiment on Maize [1] (4 weeks, control 4) of 4.6 g. Moreover, the Plant height stood at 60 cm in the experiment with Maize [1] (4 weeks, control 57); 28 cm with Maize [3] (10 μM once a week, 19 days after sowing, control 21); 16 cm in the experiment on Rice. The “Leaf 5” value in the experiment with Maize [1] (26 days, control 40) is given as 48 cm; with Maize [4], 39.4 cm. The “Suppression of the SPX1 biomarker (GUS staining)” value in experiment [2] (7 days of growth in low phosphate, confirmed in two experimental repeats) is reported as “practically completely suppressed the SPX1 biomarker”. Also, the “GUS (SPX1) stained area normalized to the number of seeds” value in experiment [2] (low phosphate, 50 μM, 7 days after germination, compare with low phosphate controls of same plate (Table 5 c3)) is on record as 26 pixels. The compound further displayed an Indexed chlorophyll content in the experiment with Maize [3] (19 days after sowing, SPAD, control 28) of 32. This compound returned a Crown root number in the experiment with Maize [3] (19 days after sowing, control 2) of 7. In the experiment on Maize [3] (first 4 days after emergence, control 2.04), the “Growth rate of leaf 4” value came out at 2.46 cm/day.
